In patent US5962493A, “2-mercaptobenzimidazole derivatives and antihyperlipemic agent or antiarteriosclerotic agent containing the same” (priority 1997, dated 1999):
Like-named read-outs stand apart in the source and are kept apart here.

Columns and labels:
[1] = tested on: mouse peritoneal macrophage; conditions: dose 5 μM, microscopic observation
[2] = tested on: mouse peritoneal macrophage; assay: In vitro tests on inhibition of foaming of macrophage with mouse peritoneal macrophage (cholesteryl ester formation); assay type: cell-based, mouse (female ICR); conditions: 16 hours at 37° C., read-out: CE (%) (cholesteryl ester-forming rate, ratio to the control)
Description: (1) In vitro tests on inhibition of foaming of macrophage with mouse peritoneal macrophage:
The necks of 15-week old female ICR mice (Japan SLC) were cut off. After blood-letting, Hanks buffer solution (Nissui Seiyaku Co., Ltd.) was injected into the abdominal cavity of each mouse. The abdomen was massaged and then the buffer solution was rapidly recovered, centrifuged at 1000 rotations for 5 minutes to collect the peritoneal macrophages. The peritoneal macrophases thus collected were then suspended in GIT medium (Wako Pure Chemical Industries, Ltd.), and the suspension was spread on a 24-hole microplate. After the cultivation at 37° C. in 5% CO2 for 2 hours, the medium was replaced with a Dulbecoo Modified Eagle's MEM medium (Nissui Seiyaku Co., Ltd.). After the cultivation at 37° C. in 5% CO2 for additional 16 hours, the following substances were added in the following order:
(1) subject: dissolved in DMSO (Wako Pure Chemical Industries, Ltd.)
PC: phosphatidyl choline (a product of Funakoshi)
PS: phosphatidyl serine (ditto)
DCP: dicetyl phosphate (ditto)
CHOL.: cholesterol (Sigma).
After further cultivation at 37° C. in 5% CO2 for 16 hours, the lipid fraction was extracted with chloroform and methanol. The lipid fraction thus extracted was dissolved in isopropyl alcohol, and the formed cholesteryl ester (CE) was determined by an enzymatic coloring method. The cholesteryl ester-forming rate of each compound was calculated in terms of the ratio thereof to the control. The cytotoxicity was examined by microscopic observation of the shape of the cell.
The pharmacological effects of the compounds given in Table 2 were evaluated in the same manner as that of Example 3.

Structure (SMILES) | Cytotoxicity ([1]; Table 2) | activity at 5 µM ([2]; Table 1, ratio to control) | Cytotoxicity ([1]; Table 1) | other results
CCCCC(CC)C(=O)n1c(SCCCCCSc2nc3ccccc3n2C(=O)C(CC)CCCC)nc2ccccc21 (stereo not shown) [II-4, 1,5-bis(1-(2-ethylhexanoyl)-2-benzimidazoylthio) pentane] | none | – | – | –
CCC(=O)n1c(SCc2ccc(CSc3nc4ccccc4n3C(=O)CC)cc2)nc2ccccc21 [II-12, 1,4-bis(1-propionyl-2-benzimidazoylthiomethyl)benzene] | none | – | – | –
CC(=O)n1c(SCCCCCSc2nc3ccccc3n2C(C)=O)nc2ccccc21 [II-1, 1,5-bis(1-acetyl-2-benzimidazoylthio)pentane] | none | – | – | –
c1cc(CSc2nc3ccccc3[nH]2)cc(CSc2nc3ccccc3[nH]2)c1 [IV-14, 1,3-bis(2-benzimidazoylthiomethyl)benzene] | none | – | – | –
CCC(=O)n1c(SCCCCCSc2nc3ccccc3n2C(=O)CC)nc2ccccc21 [II-2, 1,5-bis(1-propionyl-2-benzimidazoylthio)pentane] | none | – | – | –
CCCn1c(SCCCCCSc2nc3cc(Cl)c(Cl)cc3n2CCC)nc2cc(Cl)c(Cl)cc21 [II-34, 1,5-bis(5,6-dichloro-1-propyl-2-benzimidazoylthio) pentane] | none | – | – | –
Clc1ccc2[nH]c(SCCCCCSc3nc4cc(Cl)ccc4[nH]3)nc2c1 [Compound I-3, 1,5-bis(5-chloro-2-benzimidazoylthio)pentane] | none | – | – | –
c1ccc(Cn2c(SCCCCCSc3nc4ccccc4n3Cc3ccccc3)nc3ccccc32)cc1 [II-32, 1.5-bis(1-benzyl-2-benzimidazoylthio)pentane] | none | – | – | –
c1ccc2[nH]c(SCCCCCCCCSc3nc4ccccc4[nH]3)nc2c1 [IV-2, 1,8-bis(2-benzimidazoylthio)octane] | none | – | – | activity at 5 µM ([2]; Table 2, ratio to control): 28%
CCCCCCCC(=O)n1c(SCCOCCSc2nc3ccccc3n2C(=O)CCCCCCC)nc2ccccc21 [Compound (6)] | – | 26% | none | –
CCCCCCCCn1c(SCCOCCSc2nc3ccccc3n2CCCCCCCC)nc2ccccc21 [Compound (9)] | – | 28% | none | –
CCCCCCCCn1c(SCCCCCSc2nc3ccccc3n2CCCCCCCC)nc2ccccc21 [II-30, 1,5-bis(l-octyl-2-benzimidazoylthio)pentane] | none | – | – | –
c1ccc2[nH]c(SCCOCCOCCSc3nc4ccccc4[nH]3)nc2c1 [Compound (19)] | – | 11% | none | –
CCCn1c(SCCOCCOCCSc2nc3ccccc3n2CCC)nc2ccccc21 [Compound (21)] | – | 23% | none | –
CCC(=O)n1c(SCCOCCOCCSc2nc3ccccc3n2C(=O)CC)nc2ccccc21 [Compound (20)] | – | 69% | none | –
Cc1ccc2[nH]c(SCCOCCSc3nc4cc(C)ccc4[nH]3)nc2c1 [Compound (11)] | – | 38% | none | –
CCCCCCCCCCCCCC(=O)n1c(SCCOCCSc2nc3ccccc3n2C(=O)CCCCCCCCCCCCC)nc2ccccc21 [Compound (7)] | – | 74% | none | –
CCC(=O)n1c(SCCOCCSc2nc3cc(Cl)c(Cl)cc3n2C(=O)CC)nc2cc(Cl)c(Cl)cc21 [Compound (17)] | – | 27% | none | –
CCC(=O)n1c(SCCCCCCCCSc2nc3ccccc3n2C(=O)CC)nc2ccccc21 [II-11, 1,8-bis(1-propionyl-2-benzimidazoyl-thio)octane] | none | – | – | –
CCCC(=O)n1c(SCCOCCSc2nc3ccccc3n2C(=O)CCC)nc2ccccc21 [Compound (3)] | – | 15% | none | –
O=C(c1ccc(Cl)cc1)n1c(SCCCCCSc2nc3ccccc3n2C(=O)c2ccc(Cl)cc2)nc2ccccc21 [II-6, 1,5-bis(1-(4-chlorobenzoyl)-2-benzimidazoylthio) pentane] | none | – | – | –
COc1ccc2[nH]c(SCCCCCSc3nc4cc(OC)ccc4[nH]3)nc2c1 [IV-4, 1,5-bis(5-methoxyl-2-benzimidazoylthio)pentane] | none | – | – | –
Cn1c(SCCCCCSc2nc3ccccc3n2C)nc2ccccc21 [II-28, 1,5-bis(1-methyl-2-benzimidazoylthio)pentane] | none | – | – | –
Clc1ccc2[nH]c(SCCOCCSc3nc4cc(Cl)ccc4[nH]3)nc2c1 [Compound (14)] | – | 18% | none | –

Structure (SMILES) | Cytotoxicity ([1]; Table 2) | activity at 5 µM ([2]; Table 1, ratio to control) | Cytotoxicity ([1]; Table 1) | other results
CCC(=O)n1c(SCc2cccc(CSc3nc4ccccc4n3C(=O)CC)c2)nc2ccccc21 [II-13, 1,3-bis(1-propionyl-2-benzimidazoylthiomethyl)benzene] | none | – | – | –
CCC(=O)n1c(SCCCCCCSc2nc3ccccc3n2C(=O)CC)nc2ccccc21 [II-10, 1,6-bis(1-propionyl-2-benzimidazoylthio)hexane] | none | – | – | –
CCCCCC(=O)n1c(SCCOCCSc2nc3ccccc3n2C(=O)CCCCC)nc2ccccc21 [Compound (5)] | – | 20% | none | –
c1ccc(Cn2c(SCCOCCSc3nc4ccccc4n3Cc3ccccc3)nc3ccccc32)cc1 [Compound (10)] | – | 76% | none | –
CCCn1c(SCCCCCSc2nc3ccccc3n2CCC)nc2ccccc21 [II-29, 1,5-bis(1-propyl-2-benzimidazoylthio)pentane] | none | – | – | –
Clc1cc2nc(SCCCCCSc3nc4cc(Cl)c(Cl)cc4[nH]3)[nH]c2cc1Cl [Compound I-4, 1,5-bis(5,6-dichloro-2-benzimidazoylthio)Pentane] | none | – | – | –
O=[N+]([O-])c1ccc2[nH]c(SCCCCCSc3nc4cc([N+](=O)[O-])ccc4[nH]3)nc2c1 [IV-5, 1,5-bis(5-nitro-2-benzimidazoylthio)pentane] | none | – | – | –
Cn1c(SCCCCCCCCSc2nc3ccccc3n2C)nc2ccccc21 [II-35, 1,8-bis(1-methyl-2-benzimidazoylthio)octane] | none | – | – | –
Cc1cc2nc(SCCCCCSc3nc4cc(C)c(C)cc4[nH]3)[nH]c2cc1C [Compound I-2, 1,5-bis(5,6-dimethyl-2-benzimidazoylthio)pentane] | none | – | – | –
O=[N+]([O-])c1ccc2[nH]c(SCCOCCSc3nc4cc([N+](=O)[O-])ccc4[nH]3)nc2c1 [Compound (18)] | – | 10% | none | –
c1ccc2[nH]c(SCCCCCCSc3nc4ccccc4[nH]3)nc2c1 [IV-1, 1,6-bis(2-benzimidazoylthio)hexane] | none | – | – | activity at 5 µM ([2]; Table 2, ratio to control): 28%
Cc1cc2nc(SCCOCCSc3nc4cc(C)c(C)cc4[nH]3)[nH]c2cc1C [Compound (13)] | – | 45% | none | –
CCC(=O)Nc1ccc2[nH]c(SCCCCCSc3nc4cc(NC(=O)CC)ccc4[nH]3)nc2c1 [IV-8, 1,5-bis(5-propanamido-2-benzimidazoylthio)pentane] | none | – | – | –
Clc1cc2nc(SCCOCCSc3nc4cc(Cl)c(Cl)cc4[nH]3)[nH]c2cc1Cl [Compound (16)] | – | 46% | none | –
CCCn1c(SCCOCCSc2nc3ccccc3n2CCC)nc2ccccc21 [Compound (8)] | – | 16% | none | –
c1ccc2[nH]c(SCc3ccc(CSc4nc5ccccc5[nH]4)cc3)nc2c1 [IV-13, 1,4-bis(2-benzimidazoylthiomethyl)benzene] | none | – | – | –
CCC(=O)n1c(SCCCCCSc2nc3ccc(Cl)cc3n2C(=O)CC)nc2cc(Cl)ccc21 [II-20, 1-(5-chloro-1-propionyl-2-benzimidazoylthio)-5-(6-chloro-1-propionyl-2-benzimidazoylthio)pentane] | none | – | – | –
CCC(=O)n1c(SCCCCSc2nc3ccccc3n2C(=O)CC)nc2ccccc21 [II-9, 1,4-bis(1-propionyl-2-benzimidazoylthio)butane] | none | – | – | –
CCC(=O)n1c(SCCCCCSc2nc3cc(C)c(C)cc3n2C(=O)CC)nc2cc(C)c(C)cc21 [II-15, 1,5-bis(5,6-dimethyl-1-propionyl-2-benzimidazoylthio) pentane] | none | – | – | –
CCCCC(CC)Cn1c(SCCCCCSc2nc3ccccc3n2CC(CC)CCCC)nc2ccccc21 (stereo not shown) [II-31, 1,5-bis(1-(2-ethylhexyl)-2-benzimidazoylthio)pentane] | none | – | – | –
c1ccc2[nH]c(SCCOCCSc3nc4ccccc4[nH]3)nc2c1 [Compound (1)] | – | 25% | none | –
Cc1ccc2[nH]c(SCCCCCSc3nc4cc(C)ccc4[nH]3)nc2c1 [Compound I-1, 1,5-bis(5-methyl-2-benzimidazoylthio)pentane] | none | – | – | –
Cn1c(SCCCCCSc2nc3cc(Cl)c(Cl)cc3n2C)nc2cc(Cl)c(Cl)cc21 [II-33, 1,5-bis(5,6-dichloro-1-methyl-2-benzimidazoylthio) pentane] | none | – | – | –
c1ccc2[nH]c(SCCCCSc3nc4ccccc4[nH]3)nc2c1 [IV-3, 1,4-bis(2-benzimidazoylthio)butane] | none | – | – | –
